Data: patent publication US20150176079A1, “MARKERS FOR CANCER” (OSLO UNIVERSITETSSYKEHUS HF, priority 2007, published 2015)

Columns and labels:
Assay type in all cases: cell-based
[1] = test system: CNRIP1 mRNA expression in colon cancer cell lines; assay: Quantitative gene expression of CNRIP1 in colon cancer cell lines before and after epigenetic drug treatment; conditions: for increase in relative expression of CNRIP1, the two doses compared: low dose 1 uM versus high dose 10 uM, 72 h, six colon cancer cell lines; for relative expression of CNRIP1 (fold change, untreated sample as calibrator): six colon cancer cell lines HT29, SW48, HCT15, SW480, RKO, LS1034, AZA 1 or 10 uM 72 h, TSA 0.5 μM 12 h, combination 1 μM AZA 72 h + 0.5 μM TSA last 12 h
Experimental: (§1) Gene expression was measured in 6 colon cancer cell lines before and after treatment with epigenetic drugs. The relative expression levels of SPG20, INA and CNRIP1 in the colon cancer cell lines (n=6) was measured. […] The mean expression of ACTB and GUSB was used as endogenous control. TaqMan real-time fluorescence detection (Applied Biosystems, Foster city, CA) was used to quantify mRNA levels in the colon cancer cell lines, as previously described [Gibson et al. and Heid et al.]. cDNA was generated from five μg total RNA using a High-Capacity cDNA Archive kit (Applied Biosystems), including random primers according to the manufacturers' protocol. cDNA from the genes of interest (SPG20, INA and CNRIP1) and the endogenous controls (ACTB and GUSB) were amplified separately by the 7900HT Sequence Detection System (Applied Biosystems) following the protocol recommended by supplier. All samples were analyzed in triplicates. The expression levels were calculated as fold changes using the […] method and the untreated sample as a calibrator. In order to adjust for the possibly variable amounts of cDNA input in each PCR, we normalized the expression quantity of the target genes with the housekeeping genes ACTB and GUSB. Six colon cancer cell lines, HCT15, HT29, SW48, SW480, RKO and LS1034 were subjected to treatment with the demethylating drug 5-aza-2'deoxycytidine (1 μM for 72 h and 10 uM for 72 h), the histone deacetylase inhibitor trichostatin A (0.5 μM for 12 h) and a combination of both (1 μM 5-aza-2'deoxycytidine for 72 h, 0.5 μM trichostatin A added the last 12 h).

[2] = test system: INA mRNA expression in colon cancer cell lines; assay: Quantitative gene expression of INA in colon cancer cell lines before and after epigenetic drug treatment; conditions: for increase in relative expression of INA, the two doses compared: low dose 1 uM versus high dose 10 uM, 72 h, six colon cancer cell lines; for relative expression of INA (fold change, untreated sample as calibrator): six colon cancer cell lines HT29, SW48, HCT15, SW480, RKO, LS1034, AZA 1 or 10 uM 72 h, TSA 0.5 μM 12 h, combination 1 μM AZA 72 h + 0.5 μM TSA last 12 h
Experimental: as §1

[3] = test system: SPG20 mRNA expression in colon cancer cell lines; assay: Quantitative gene expression of SPG20 in colon cancer cell lines before and after epigenetic drug treatment; conditions: for increase in relative expression of SPG20, the two doses compared: low dose 1 uM versus high dose 10 uM, 72 h, six colon cancer cell lines; for relative expression of SPG20 (fold change, untreated sample as calibrator): six colon cancer cell lines HT29, SW48, HCT15, SW480, RKO, LS1034, AZA 1 or 10 uM 72 h, TSA 0.5 μM 12 h, combination 1 μM AZA 72 h + 0.5 μM TSA last 12 h
Experimental: as §1

[4] = test system: MAL mRNA expression in colon cancer cell lines; assay: Real-time quantitative gene expression of MAL in colon cancer cell lines after drug treatment
Experimental: Six colon cancer cell lines, HCT15, HT29, SW48, SW480, RKO and LS1034 were subjected to treatment with the demethylating drug 5-aza-2′deoxycytidine (1 μM for 72 h and 10 uM for 72 h), the histone deacetylase inhibitor trichostatin A (0.5 μM for 12 h) and a combination of both (1 μM 5-aza-2′deoxycytidine for 72 h, 0.5 μM trichostatin A added the last 12 h). Total RNA was extracted from cell lines (n=46), tumours (n=16), and normal tissue (n=3) using Trizol (Invitrogen, Carlsbad, Calif., USA) and the RNA concentration was determined using ND-1000 Nanodrop (NanoDrop Technologies, Wilmington, Del., USA). For each sample, total RNA was converted to cDNA using a High-Capacity cDNA Archive kit (Applied Biosystems), including random primers. MAL (Hs00242749_m1 and Hs00360838_m1) and the endogenous controls ACTB (Hs99999903_m1) and GUSB (Hs99999908_m1) were amplified separately in 96 well fast plates following the recommended protocol (Applied Biosystems), and the real time quantitative gene expression was measured by the 7900HT Sequence Detection System (Applied Biosystems). All samples were analyzed in triplicate, and the median value was used for data analysis. The human universal reference RNA (containing a mixture of RNA from ten different cell lines; Stratagene) was used to generate a standard curve, and the resulting quantitative expression levels of MAL were normalized against the mean value of the two endogenous controls.

[5] = test system: MAL promoter methylation in colon cancer cell lines; assay: Methylation-specific PCR (MSP) of the MAL promoter in colon cancer cell lines after drug treatment; conditions: colon cancer cell lines HT29 and HCT15 (FIG. 9)
Experimental: Six colon cancer cell lines, HCT15, HT29, SW48, SW480, RKO and LS1034 were subjected to treatment with the demethylating drug 5-aza-2′deoxycytidine (1 μM for 72 h and 10 uM for 72 h), the histone deacetylase inhibitor trichostatin A (0.5 μM for 12 h) and a combination of both (1 μM 5-aza-2′deoxycytidine for 72 h, 0.5 μM trichostatin A added the last 12 h). DNA from primary tumours and normal mucosa samples was bisulphite treated as previously described. DNA from colon cancer cell lines was bisulphite treated using the EpiTect bisulphite kit (Qiagen Inc., Valencia, Calif., USA). The promoter methylation status of all genes was analyzed by methylation-specific polymerase chain reaction (MSP) using the HotStarTaq DNA polymerase (Qiagen). All results were confirmed with a second independent round of MSP. Human placental DNA (Sigma Chemical Co, St. Louis, Mo., USA) treated in vitro with SssI methyltransferase (New England Biolabs Inc., Beverly, Mass., USA) was used as a positive control for the methylated MSP reaction, whereas DNA from normal lymphocytes was used as a positive control for unmethylated alleles. Water was used as a negative control in both reactions.

[6] = listed as 5-aza-2′deoxycytidine
[7] = colon cancer cell lines HT29 and HCT15 (FIG. 9)

| Compound | increase in relative expression of CNRIP1, the two doses compared [1] | increase in relative expression of CNRIP1, the two doses compared [1, 6] | relative expression of CNRIP1 (fold change, untreated sample as calibrator) [1] | increase in relative expression of INA, the two doses compared [2] | increase in relative expression of INA, the two doses compared [2, 6] | relative expression of INA (fold change, untreated sample as calibrator) [2] | increase in relative expression of SPG20, the two doses compared [3] | increase in relative expression of SPG20, the two doses compared [3, 6] | relative expression of SPG20 (fold change, untreated sample as calibrator) [3] | MAL mRNA expression ([4]; HCT15 cells) | MAL mRNA expression ([4]; HT29 cells) | MAL mRNA expression [4, 7] | promoter methylation of MAL (MSP) [5] |
| --- | --- | --- | --- | --- | --- | --- | --- | --- | --- | --- | --- | --- | --- |
| Nc1ncn([C@H]2C[C@H](O)[C@@H](CO)O2)c(=O)n1 [5-aza-2′-deoxycytidine] | comparable effects | comparable increases | Up-regulated mRNA expression | comparable effects | comparable increases | Up-regulated mRNA expression | comparable effects | comparable increases | Up-regulated mRNA expression | more moderate levels | high expression | up-regulated mRNA expression | Decreased promoter methylation |
| CC(/C=C/C(=O)NO)=C\[C@@H](C)C(=O)c1ccc(N(C)C)cc1 [trichostatin A] |  |  | did not increase the gene expression |  |  | did not increase the gene expression |  |  | did not increase the gene expression |  |  | did not increase MAL expression |  |
